Measurements reported in patent publication US8445500B2, “Pesticidal compositions” (Dow AgroSciences, LLC., priority 2007, dated 2013).

Legend:
Format in all cases: in vivo
[1] = test system: Yellow Fever Mosquito Aedes aegypti; experiment: Insecticidal assay 4, yellow fever mosquito larvae, 96-well plate; details: A. aegypti first instar larvae in water; 1.5 microliters of 4 micrograms per microliter in DMSO per well; assessed after 72 hours at 22° C.
Text: 4. Insecticidal Assay for Yellow Fever Mosquito Aedes aegypti:
Objective: To evaluate the insecticidal activity of compounds against A. aegypti larvae through contact and ingestion.
(§1) Test unit preparation: Empty, 96-well microtiter plates are loaded onto a robotic dispensing system prior to application.
Formulation and application: Compounds are formulated in dimethyl sulfoxide at 4-micrograms per microliter. A robotic system dispenses 1.5 microliters of each formulated experimental solution into each well of an empty, 96-well microtiter plate. Each treatment is replicated 3 times.
Infesting: Subsequent to application, recently hatched, mosquito larvae are suspended in water containing 0.4% mosquito diet (1:3 mix of brewers yeast to liver powder). A robotic system dispenses aliquots of this aqueous solution containing 5-8 first instar mosquitoes into each well of the treated plates.
Holding and assessment: After infestation, the plates are covered with a matching clear plastic lid. Infested plates are stacked and held in an incubator at 22° C. for 72 hours. At assessment, cells are examined by means of a dissecting microscope for insecticidal effects.

[2] = test system: Corn Earworm Helicoverpa zea; experiment: Insecticidal assay 11, corn earworm, 128 well bioassay trays; details: H. zea second instar; 50 microliters of 1 milligram per milliliter stock or serial dilutions on diet per well; assessed 5 days after infestation
Description: 11. Insecticidal Assay for Corn Earworm Helicoverpa zea:
Objective: To assess the insecticidal activity of compounds against H. zea, through contact and ingestion.
(§2) Test unit preparation: 128 well bioassay trays are prepared by injecting each well with approximately 1 milliliter of prepared lepidopteran diet. Trays are allowed to dry prior to use.
(§3) Compound formulation and application: A 1 milligram per milliliter, stock solution is prepared for each compound by adding 2 milliliters of acetone/water diluent (9:1) to a vial containing 2 milligrams of technical compound. From this stock solution, additional doses may be produced through serial dilution. Once the appropriate concentrations have been prepared, 50 microliters of each solution is applied to the surface of the diet in each of 8 wells. Upon completing application, the trays are allowed to dry.
Infestation: Once dry, each well is infested with a single second instar corn earworm. Infested wells are sealed with self sticking, ventilated plastic covers.
(§4) Holding and assessment: After infestation and sealing, the trays are placed in a growth chamber at 25 C and 40% relative humidity. 5 days after infestation the larvae are assessed for insecticidal effects.

[3] = test system: Beet Armyworm Spodoptera exigua; experiment: Insecticidal assay 10, beet armyworm, 128 well bioassay trays; details: S. exigua second instar; 50 microliters of 1 milligram per milliliter stock or serial dilutions on diet per well; assessed 5 days after infestation
Description: 10. Insecticidal Assay for Beet Armyworm Spodoptera exigua:
Objective: To assess the insecticidal activity of compounds against S. exigua through contact and ingestion.
as §2, §3
Infestation: Once dry, each well is infested with a single second instar beet armyworm. The infested wells are sealed with self sticking, ventilated plastic covers.
as §4

[4] = test system: German Cockroach Blattella germanica; experiment: Insecticidal assay 12, German cockroach, 96-well diet plate; details: B. germanica second instar; 2 microliters of 4-microgram/microliter in DMSO per well on diet; assessed after 6 and 13 days at 29° C.
Description: 12. Insecticidal Assay for German Cockroach Blattella germanica: Objective: Assessment of the insecticidal activity of compounds against B. germanica through contact and ingestion. Test unit preparation: A robotic system dispenses 100 microliters of freshly prepared artificial diet into each well of a 96-well microtiter plate. The plates are held overnight at 22° C. to allow proper cooling and drying prior to treatment and infestation. Compound formulation and application: Compounds are formulated in dimethyl sulfoxide at 4-microgram/microliter. A robotic system automatically dispenses 2 microliters of each compound solution into individual wells of the prepared test units. Each treatment is replicated 3 times. After application, plates are allowed to dry 5-6 hours in a fume hood. When dry, the plates are covered with a matching lid and held overnight in a sealed container prior to infestation. Infestation: One day after application, each treated well is infested with 3-5, second instar cockroaches. Holding and assessment: Once infested, the plates are covered with a clear plastic lid. The plates are stacked and held in an incubator at 29° C. After 6 and 13 days respectively, each well is examined by means of a dissecting microscope for insecticidal effects.

[5] = test system: Western Tarnished Plant Bug Lygus hesperus; experiment: Insecticidal assay 13, western tarnished plant bug, sprayed egg-infested snow pea pods; details: L. hesperus eggs and emergent nymphs; airbrush spray on egg-infested snow pea pods; assessed after 10 days
Description: 13. Insecticidal Assay for Western Tarnished Plant Bug Lygus hesperus:
Objective: Assessment of the insecticidal activity of compounds against L. hesperus through egg contact and contact/ingestion activity on emergent nymphs.
Test Unit preparation: Female lygus are allowed to oviposit on snow pea pods, these pods are then placed in plastic Petri dishes.
Formulation and application: Compounds are dissolved in acetone and further dilutes with water containing 0.025% Tween 20. The solutions are sprayed on the Petri dishes and the egg-infested snow pea pods using an airbrush.
Holding and assessment: The Petri dishes are held for 10 days under controlled conditions at which time the emerging nymphs are assessed for insecticidal effects.

[6] = test system: Tobacco Budworm Heliothis virescens; experiment: Insecticidal assay 8, tobacco budworm, diet cups; details: H. virescens second instar; 250 microliters of 400 ppm and 25 ppm solutions on diet in cups; assessed 5 days after infestation
Description: 8. Insecticidal Assay for Tobacco Budworm Heliothis virescens:
Objective: To assess the insecticidal activity of compounds against H. virescens through contact and ingestion.
(§5) Test unit preparation: 8 milliliters of lepidopteran diet is dispensed into one ounce clear plastic portion cups. The diet is allowed to cool before storage or use.
(§6) Formulation and application: Eight milligrams of technical compound is dissolved in 20 milliliters of 2:1 acetone:tap water diluent to form a 400 ppm solution. An aliquot of this solution is also used to prepare a 25 parts per million concentration. 250 microliters of each solution is then pipetted onto the surface the diet in each cup. Each treatment is replicated 10 times.
Infestation: Once the treated cups have dried, a single second-instar tobacco budworm is placed on the treated diet in each cup.
(§7) Holding and assessment: Treated and infested diet cups or are capped and then held in a chamber at 25° C. and 50% relative humidity. 14-hours light:10-hours dark. 5 days after infestation the larvae are assessed for insecticidal effects.

[7] = test system: Beet Armyworm Spodoptera exigua; experiment: Insecticidal assay 7, beet armyworm, diet cups; details: S. exigua second instar; 250 microliters of 400 ppm and 25 ppm solutions on diet in cups; assessed 5 days after infestation
Description: 7. Insecticidal Assay for Beet Armyworm Spodoptera exigua:
Objective: To assess the insecticidal activity of compounds against S. exigua, through contact and ingestion.
as §5, §6
Infestation: Once the treated cups have dried, a single second-instar beet armyworm is placed on the treated diet in each cup.
as §7

[8] = test system: Green Peach Aphid Myzus persicae; experiment: Insecticidal assay 15, green peach aphid, foliar spray on cabbage seedlings; details: M. persicae on cabbage seedlings; 50 and 5 parts per million spray solutions; assessed 3 days after treatment
Description: 15. Insecticidal Assay for Green Peach Aphid Myzus persicae:
Objective: To assess the insecticidal activity of compounds against M. persicae through contact and ingestion.
(§8) Formulation and application: One (1) milligram of each technical synthetic organic compound was dissolved in 1 milliliters of a 90:10 acetone:ethanol solvent. This 1 milliliter of chemical solution was added to 19 milliliters of distilled water containing 0.05% Tween 20 surfactant to produce a 50 parts per million spray solution. A 5 part per million solution was then prepared from the 50 part per million stock.
Test unit preparation and infestation: Cabbage seedlings, with 2 to 3 first true leaves emerged (12 days after planting) are culled to 1 plant per 3 inch pot. Treatments consisted of 4 replicates. Four days prior to application, heavily infested colony turnip leaves are shaken above the untreated plants. Shaking dislodges the aphids and they migrate to succulent plant material. Plants are examined to ensure even infestation prior to application.
(§9) Application: The plants are sprayed on both sides of all leaves with a hand-held atomizing sprayer until solutions are completely used. […]
Holding and assessment: The plants are allowed to air dry and are then held for 3 days in a controlled room at 26° C. and 40% relative humidity. 3 days after treatment the aphids are assessed for insecticidal effects.

[9] = test system: Large Milkweed Bug Oncopeltus fasciatus; experiment: Insecticidal assay 6, large milkweed bug, 96-well diet plate; details: O. fasciatus second instar; 2 microliters of 4-microgram/microliter in DMSO per well on diet; assessed after 6 days at 29° C.
Description: 6. Insecticidal Assay for Large Milkweed Bug Oncopeltus fasciatus:
Objective: To assess the insecticidal activity of compounds against O. fasciatus through contact and ingestion.
Test unit preparation: A robotic system dispenses 100 microliters of freshly prepared artificial diet into each well of a 96-well microtiter plate. The plates are held overnight at 22° C. to allow proper cooling and drying prior to treatment and infestation.
(§10) Compound formulation and application: Compounds are formulated in dimethyl sulfoxide at 4-microgram/microliter. A robotic system automatically dispenses 2 microliters of each of the experimental compound solutions into individual wells of the prepared test units. There are 6 replicates per treatment. After application, plates are allowed to dry 5-6 hours in a fume hood. When dry, the plates are covered with a matching lid and held overnight in a sealed container prior to infestation.
Infestation: One day after application, each treated well is infested with 3-5 second instar milkweed bugs.
Holding and assessment: Once infested, the plates are covered with a clear plastic lid. The plates are then stacked and held in an incubator at 29° C. After 6 days, each well is examined by means of a dissecting microscope for insecticidal effect.

[10] = test system: Cabbage Looper Tricoplusia ni; experiment: Insecticidal assay 9, cabbage looper, cabbage leaf disc dip; details: T. ni second instar; cabbage leaf discs dipped in 400 ppm and 25 ppm solutions; assessed 5 days after infestation
Description: 9. Insecticidal Assay for Cabbage Looper Tricoplusia ni:
Objective: To assess the insecticidal activity of compounds against T. ni through contact and ingestion.
Formulation and application: Eight milligrams of technical compound is dissolved in 20 milliliters of 2:1 acetone:tap water diluent to form a 400 ppm solution. An aliquot of this solution is also used to prepare a 25 parts per million concentration. 3.5 centimeter diameter leaf discs cut from cabbage leaves are dipped into each solution until thoroughly wet. Each treatment is replicated 10 times. After air-drying, the treated discs are placed individually into one-ounce plastic cups.
Infestation: Once the leaf discs have dried, a single second instar cabbage looper is place on the cabbage disc in each cup.
Holding and assessment: Treated and infested cups or are capped and then held in a chamber at 25° C. and 50% relative humidity, 14-hours light:10-hours dark. 5 days after infestation the larvae are assessed for insecticidal effects.

[11] = test system: Root-Knot Nematode Meloidogyne incognita; experiment: Insecticidal assay 5, root-knot nematode, 96-well plate with foxtail millet; details: M. incognita eggs; 5 micrograms of compound per well; soil/polymer media with foxtail millet seeds; assessed after 7 days at 27° C.
Text: 5. Insecticidal Assay for Root-Knot Nematode Meloidogyne incognita:
Objective: To evaluate the insecticidal activity of compounds against M. incognita through contact and ingestion.
as §1
Formulation and application: A robotic system dispenses 25 microliters of ethanol and 5 micrograms of compound, diluted in dimethyl sulfoxide, into each well of a 96-well flat-bottomed, microtiter plate. There are 3 replicates per treatment. The plates are held 24 hours to allow proper drying prior to further preparation and infestation.
Additional test unit preparation and infestation: After drying, 16 milligrams of media consisting of 2 parts fine soil and 1 part absorbent polymer is added to each well of the treated 96-well plates. Once the media is in place, a 200 microliter aqueous suspension of rootknot nematode eggs is added to each well forming a gelatinous substrate. Into each of these wells are distributed 10 foxtail millet Seteria italica seeds. Following this “planting” an identical plate is sealed to the top of the treated plate to allow space for the millet to grow.
Holding and assessment: Once the lids are in place, the plates are held at 27° C. and 75% relative humidity under bright indirect lights. […]

[12] = test system: Tobacco Budworm Heliothis virescens; experiment: Insecticidal assay 2, tobacco budworm, 96-well diet plate; details: H. virescens eggs and early instars; 2 microliters of 4 micrograms per microliter in DMSO per well on diet; 200 ppm piperonyl butoxide co-applied; assessed after 6 days at 29° C.
Description: 2. Insecticidal Assay for Tobacco Budworm Heliothis virescens:
Objective: To evaluate the insecticidal activity of compounds against H. virescens eggs and early instars through contact and ingestion.
Test unit preparation: A robotic system dispenses 150 microliters of freshly prepared artificial lepidopteran diet into each well of a 96-well microtiter plate. The plates are held overnight at 22° C. to allow proper cooling and drying prior to treatment and infestation.
as §10, with “4-micrograms per microliter.” for “4-microgram/microliter.”, “the” for “the experimental”, “Each treatment is replicated” for “There are”, “times. As part of the application process, a 200 ppm concentration of the commonly used synergist, piperonyl butoxide is co-applied to each well to increase the sensitivity of this assay.” for “replicates per treatment.”
Infestation: One day after application, each treated well is infested with 3-5, tobacco budworm eggs.
Holding and assessment: Once infested, the plates are covered with a clear plastic lid. The plates are stacked and held in an incubator at 29° C. […]

[13] = test system: Cotton Aphid Aphis gossypii; experiment: Insecticidal assay 14, cotton aphid, foliar spray on squash; details: A. gossypii all life stages on squash; 50 and 5 parts per million spray solutions; assessed 3 days after treatment
Description: 14. Insecticidal Assay for Cotton Aphid Aphis gossypii:
Objective: To assess the insecticidal activity of compounds against A. gossypii through contact and ingestion.
as §8
Test unit preparation and infestation: One week old ‘Crookneck’ squash plants, trimmed to one cotyledon per plant, are infested with cotton aphids (all life stages). Sections of heavily infested colony squash leaves were placed on the untreated squash cotyledons 16-20 hrs prior to spraying. As the infested sections dried out, the aphids moved to the succulent plant material. Plants are examined to ensure even infestation prior to application.
as §9
Holding and assessment: The plants are allowed to air dry and are then held for 3 days in a controlled room at 26° C. and 40% relative humidity prior to grading. 3 days after treatment the aphids are assessed for insecticidal effects.

Measured: insecticidal activity

CN(Nc1nc(C(F)(F)F)nc(C(F)(F)F)c1C#N)c1ccc(C#N)cn1 [Compound 30]
significant insecticidal activity: [1]

N#Cc1c(NNc2c(Cl)cc(C(F)(F)F)cc2Cl)nc(C(F)(F)F)nc1C(F)(F)F [Compound 11, 4-[N′-(2,6-dichloro-4-trifluoromethyl-phenyl)-hydrazino]-2,6-bis-trifluoromethyl-pyrimidine-5-carbonitrile]
significant insecticidal activity: all assays above
